Measured values: ChEMBL document CHEMBL1149958, “Conformationally restricted piperidinyl benzamides as 5-HT3 receptor antagonists” (Bioorg Med Chem Lett, 1992)

Tests used:
Rattus norvegicus = assay: Antagonist potency towards serotonin 5-HT3 receptor was determined by inhibition of 5-HT induced bradycardia (Bezold-Jarisch reflex) in anaesthetized rat; format: functional; conditions: for ED50: Rattus norvegicus, read-out: ID50 (the source's name)
[1] = pKA value was determined; format: physicochemical

pKa [1] | Compound | ED50 (Rattus norvegicus) | ID50 (Rattus norvegicus)
 | COc1cc(N)c(Cl)cc1C(=O)NC1CCN2C(C)CCC2C1 (stereo unspecified) | 0.012 mg/kg | 
6.3 | COc1cc(N)c(Cl)cc1C(=O)NC1CCN2CCOCC2C1 (stereo unspecified) | 0.017 mg/kg | 
 | COc1cc(N)c(Cl)cc1C(=O)NC1CC(C)N2CCCC2C1 (stereo unspecified) | 0.29 mg/kg | 
 | COc1cc(N)c(Cl)cc1C(=O)NC1CCN2C(C)COCC2C1 (stereo unspecified) | 0.0095 mg/kg | 
 | COc1cc(N)c(Cl)cc1C(=O)NC1CCN2CCCC2C1 (stereo in doubt; 4a) |  | >1 mg/kg
 | COc1cc(N)c(Cl)cc1C(=O)NC1CCN2CCCC2C1 (stereo in doubt; 4b) |  | 0.024 mg/kg
9.2 | COc1cc(N)c(Cl)cc1C(=O)NC1CCN2C(C)CCCC2C1 (stereo unspecified) [BRL-20627] | 0.225 mg/kg | 
 | CCN(CC)CCNC(=O)c1cc(Cl)c(N)cc1OC [METOCLOPRAMIDE] | 0.5 mg/kg | 
 | CN1[C@@H]2CC[C@H]1C[C@@H](OC(=O)c1c[nH]c3ccccc13)C2 [TROPISETRON] | 0.0014 mg/kg | 
